In test [1] the test system is Botrytis cinerea. The test can be described thus: Activity against the grey mold Botrytis cinerea in the microtiterplate test. In kind it is cell-based. The following applies: 31 ppm; microtiter plate, 405 nm, 7 days after inoculation.
For a further test, the system named is Cercospora sojina. Nature of the test: Activity against Cercospora sojina in the microtiterplate test. The format is cell-based. The following applies: 31 ppm; microtiter plate.
The next test has as its system Sclerotinia sclerotiorum. The test can be described thus: Preventative fungicidal control of white mold on cabbage caused by Sclerotinia sclerotiorum (green house). In kind it is in vivo. The following applies: 125 ppm; cabbage sprayed 1 day before inoculation; assessed after 8 days; untreated plants 80% infected. The method, then: (§1) The compound was dissolved in a mixture of acetone and/or dimethylsulfoxide and the wetting agent/emulsifier Wettol, which is based on ethoxylated alkylphenoles, in a ratio (volume) solvent-emulsifier of 99 to 1 to give a total volume of 5 ml. Subsequently, water was added to total volume of 100 ml.
(§2) This stock solution was then diluted with the described solvent-emulsifier-water mixture to the final concentration given in the table below.
Cabagges were grown in pots to the 13 to 14 leaf stage. These plants were sprayed to run-off with previously described spray solution, containing the concentration of active ingredient or their mixture mentioned in the table below. The plants could air-dry. The next day the cabbage leaves were inoculated with 50 μl of a mixture of ground petals, methylcellulose, water, and yeast-bactopeptone media (includes spores of Sclerotinia sclerotiorum). After 8 days at 21° C. and a relative humidity of 60% the extent of fungal attack on the leaves were visually assessed as % diseased leaf area.

Test [2] relates to Botrytis cinerea. Nature of the test: Long lasting control of Botrytis cinerea on leaves of green pepper (green house). In kind it is in vivo. The following applies: 125 ppm; green pepper sprayed 7 days before inoculation; assessed after 5 days; untreated plants 90% infected. The method, then: as §1, §2
Young seedlings of green pepper were grown in pots to the 4 to 5 leaf stage. These plants were sprayed to run-off with previously described spray solution, containing the concentration of active ingredient or mixture mentioned in the table below. The plants were then cultivated in the greenhouse for 7 days and then inoculated with an aqueous biomalt or DOB solution containing the spore suspension of Botrytis cinerea. Then the plants were immediately transferred to a humid chamber. After 5 days at 22 to 24 °C and a saturated relative humidity, the extent of fungal attack on the leaves was visually assessed as % diseased leaf area.

For test [3], the system named is Corynespora cassiicola G413A mutant. The test can be described thus: Activity against Corynespora cassiicola G413A mutant in the microtiterplate test. In kind it is cell-based. The following applies: 31 ppm; microtiter plate; G413A mutant isolates.
In a further test the test system is Corynespora zeae. The test can be described thus: Activity against Corynespora zeae in the microtiterplate test. The format is cell-based. The following applies: 31 ppm; microtiter plate.

Take `CN1CC2(CC2)N=C(c2cnc3c(F)cccc3c2)c2cccc(F)c21` [Ex-17]: the “growth of the pathogen (relative to compound-free control = 100%)” value with Botrytis cinerea [1] was 4%; in the test on Cercospora sojina it was 6%; in test [3], 11%. Moreover, the figures for the “growth of the pathogen (% diseased leaf area)” value with Sclerotinia sclerotiorum and in the test on Botrytis cinerea [2] were “up to 8%” and “up to 15%”, respectively.
Consider `CN1c2ccccc2C(c2cnc3c(F)cccc3c2)=NC(=O)C1(C)C` [Ex-10], for which the results for the “growth of the pathogen (relative to compound-free control = 100%)” value in the test with Botrytis cinerea [1] and in the test with Corynespora zeae were 4% and 8%, respectively.
In the case of `CC1(C)C(=O)N=C(c2cnc3c(F)cccc3c2)c2ccccc2N1C#N` [Ex-12], the “growth of the pathogen (relative to compound-free control = 100%)” value in the test on Botrytis cinerea [1] was found to be 4%.

The values are drawn from patent publication US20260182574A1 (priority 2022, published 2026).
